Legend:
[1] = test system: posterior capillary dropout in the retina; assay: oxygen-induced retinopathy (OIR) mouse model, fluorescein angiography of retinal capillary dropout; format: in vivo
From the text: FIG. 2 is a montage of fluorescein angiograms depicting a retinal phenotype as observed in an OIR mouse, which highlights large areas of posterior capillary dropout in the retina.
Capillary drop out is a very serious problem for many retinal vascular diseases. […] See Trese, M. T. et al., Retinal Physician, April 2011.

[2] = biological target: T1, Frizzled receptor subtype 4 (Fz4) (Homo sapiens, UniProt Q9ULV1); conditions: literature (Xu 2004 and others); cited from earlier work
T1 sequence (Q9ULV1 37-537): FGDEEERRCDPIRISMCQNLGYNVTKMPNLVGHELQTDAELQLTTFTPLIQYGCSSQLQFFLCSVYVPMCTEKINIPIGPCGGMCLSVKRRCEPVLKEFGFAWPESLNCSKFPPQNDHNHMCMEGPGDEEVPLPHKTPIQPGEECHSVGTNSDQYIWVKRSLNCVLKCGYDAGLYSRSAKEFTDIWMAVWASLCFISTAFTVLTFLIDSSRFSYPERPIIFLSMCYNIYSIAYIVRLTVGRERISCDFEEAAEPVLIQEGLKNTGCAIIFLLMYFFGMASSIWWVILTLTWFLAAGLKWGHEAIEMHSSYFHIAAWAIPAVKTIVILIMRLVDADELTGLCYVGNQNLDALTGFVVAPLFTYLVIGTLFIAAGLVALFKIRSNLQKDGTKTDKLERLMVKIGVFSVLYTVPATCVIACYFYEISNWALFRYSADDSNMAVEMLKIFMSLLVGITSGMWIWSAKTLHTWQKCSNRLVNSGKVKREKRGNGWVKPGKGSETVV

Norrin: 131 amino acid secreted protein (NCBI NP_000257.1), ligand of Frizzled-4 that activates Wnt signaling
retinal phenotype on fluorescein angiogram ([1]; OIR mouse, intravitreal injection, FIG. 4): posterior capillary sparing
capillary dropout ([1]; murine capillary dropout model, norrin treatment (FIG. 4 vs FIGS. 1-3)): reduced or eliminated
affinity for Fz4 [2]: nanomolar affinity

Source: patent US20160022769A1, “COMPOSTIONS AND METHODS FOR TREATING RETINAL DISEASE” (RETINAL SOLUTIONS LLC, priority 2013, published 2016)
